Source: ChEMBL document CHEMBL4622979, “Non-rigid Diarylmethyl Analogs of Baloxavir as Cap-Dependent Endonuclease Inhibitors of Influenza Viruses” (J Med Chem, 2020)

Assays:
[1] = MRTlast in CD1 mouse spleen assessed as baloxavir acid level at 15 mg/kg, po administered as single dose measured up to 24 hrs by LC-MS/MS analysis; type: ADME, organism-based; conditions: in vivo
[2] = Cmax in CD1 mouse muscle assessed as baloxavir acid level at 15 mg/kg, po administered as single dose measured up to 24 hrs by LC-MS/MS analysis; type: ADME, organism-based, Muscle tissue; set-up: dose 15 mg/kg, route oral; conditions: in vivo
[3] = Half life in CD1 mouse blood assessed as baloxavir acid level at 15 mg/kg, po administered as single dose measured up to 24 hrs by LC-MS/MS analysis; type: ADME, organism-based; conditions: in vivo
[4] = Ratio of AUClast in CD1 mouse kidney to plasma assessed as baloxavir acid level at 15 mg/kg, po administered as single dose measured up to 24 hrs by LC-MS/MS analysis; type: ADME, organism-based; conditions: other tissue
[5] = AUClast in CD1 mouse plasma assessed as baloxavir acid level at 15 mg/kg, po administered as single dose measured up to 24 hrs by LC-MS/MS analysis; type: ADME, organism-based; set-up: time < 24 hr, dose 15 mg/kg, route oral; conditions: in vivo
[6] = Elimination rate constant in CD1 mouse small intestine assessed as baloxavir acid level at 15 mg/kg, po administered as single dose measured up to 24 hrs by LC-MS/MS analysis; type: ADME, organism-based; conditions: in vivo
[7] = AUClast in CD1 mouse liver assessed as baloxavir acid level at 15 mg/kg, po administered as single dose measured up to 24 hrs by LC-MS/MS analysis; type: ADME, organism-based; conditions: in vivo
[8] = Oral bioavailability in CD1 mouse assessed as baloxavir acid level at 15 mg/kg administered as single dose by LC-MS/MS analysis; type: ADME, organism-based; conditions: in vivo
[9] = Ratio of AUClast in CD1 mouse small intestine to plasma assessed as baloxavir acid level at 15 mg/kg, po administered as single dose measured up to 24 hrs by LC-MS/MS analysis; type: ADME, organism-based; conditions: other tissue
[10] = Ratio of AUClast in CD1 mouse muscle to plasma assessed as baloxavir acid level at 15 mg/kg, po administered as single dose measured up to 24 hrs by LC-MS/MS analysis; type: ADME, organism-based; conditions: other tissue
[11] = Tmax in CD1 mouse kidney assessed as baloxavir acid level at 15 mg/kg, po administered as single dose measured up to 24 hrs by LC-MS/MS analysis; type: ADME, organism-based; conditions: in vivo
[12] = Elimination rate constant in CD1 mouse brain assessed as baloxavir acid level at 15 mg/kg, po administered as single dose measured up to 24 hrs by LC-MS/MS analysis; type: ADME, organism-based; conditions: in vivo
[13] = Elimination rate constant in CD1 mouse liver assessed as baloxavir acid level at 15 mg/kg, po administered as single dose measured up to 24 hrs by LC-MS/MS analysis; type: ADME, organism-based; conditions: in vivo
[14] = MRTlast in CD1 mouse plasma assessed as baloxavir acid level at 15 mg/kg, po administered as single dose measured up to 24 hrs by LC-MS/MS analysis; type: ADME, organism-based; conditions: in vivo
[15] = Ratio of AUClast in CD1 mouse spleen to plasma assessed as baloxavir acid level at 15 mg/kg, po administered as single dose measured up to 24 hrs by LC-MS/MS analysis; type: ADME, organism-based; conditions: other tissue
[16] = MRTlast in CD1 mouse plasma assessed as (12aR)-12-(Diphenylmethyl)-7-hydroxy-3,4,12,12a-tetrahydro-1H-[1,4]oxazino[3,4-c]pyrido[2,1-f ][1,2,4]triazine-6,8-dione level at 15 mg/kg, po administered as single dose measured up to 24 hrs by LC-MS/MS analysis; type: ADME, organism-based; conditions: in vivo
[17] = AUClast in CD1 mouse kidney assessed as (12aR)-12-(Diphenylmethyl)-7-hydroxy-3,4,12,12a-tetrahydro-1H-[1,4]oxazino[3,4-c]pyrido[2,1-f ][1,2,4]triazine-6,8-dione level at 15 mg/kg, po administered as single dose measured up to 24 hrs by LC-MS/MS analysis; type: ADME, organism-based; conditions: in vivo
[18] = Ratio of AUClast in CD1 mouse lung to plasma assessed as (12aR)-12-(Diphenylmethyl)-7-hydroxy-3,4,12,12a-tetrahydro-1H-[1,4]oxazino[3,4-c]pyrido[2,1-f ][1,2,4]triazine-6,8-dione level at 15 mg/kg, po administered as single dose by LC-MS/MS analysis; type: ADME, organism-based; conditions: other tissue
[19] = Cmax in CD1 mouse liver assessed as (12aR)-12-(Diphenylmethyl)-7-hydroxy-3,4,12,12a-tetrahydro-1H-[1,4]oxazino[3,4-c]pyrido[2,1-f ][1,2,4]triazine-6,8-dione level at 15 mg/kg, po administered as single dose measured up to 24 hrs by LC-MS/MS analysis; type: ADME, organism-based; set-up: dose 15 mg/kg, route oral; conditions: in vivo
[20] = Tmax in CD1 mouse small intestine assessed as (12aR)-12-(Diphenylmethyl)-7-hydroxy-3,4,12,12a-tetrahydro-1H-[1,4]oxazino[3,4-c]pyrido[2,1-f ][1,2,4]triazine-6,8-dione level at 15 mg/kg, po administered as single dose measured up to 24 hrs by LC-MS/MS analysis; type: ADME, organism-based; conditions: in vivo
[21] = AUClast in CD1 mouse lung assessed as (12aR)-12-(Diphenylmethyl)-7-hydroxy-3,4,12,12a-tetrahydro-1H-[1,4]oxazino[3,4-c]pyrido[2,1-f ][1,2,4]triazine-6,8-dione level at 15 mg/kg, po administered as single dose measured up to 24 hrs by LC-MS/MS analysis; type: ADME, organism-based; conditions: in vivo
[22] = Cmax in CD1 mouse trachea assessed as (12aR)-12-(Diphenylmethyl)-7-hydroxy-3,4,12,12a-tetrahydro-1H-[1,4]oxazino[3,4-c]pyrido[2,1-f ][1,2,4]triazine-6,8-dione level at 15 mg/kg, po administered as single dose measured up to 24 hrs by LC-MS/MS analysis; type: ADME, organism-based; set-up: dose 15 mg/kg, route oral; conditions: in vivo
[23] = AUClast in CD1 mouse plasma assessed as (12aR)-12-(Diphenylmethyl)-7-hydroxy-3,4,12,12a-tetrahydro-1H-[1,4]oxazino[3,4-c]pyrido[2,1-f ][1,2,4]triazine-6,8-dione level at 15 mg/kg, po administered as single dose by LC-MS/MS analysis; type: ADME, organism-based; set-up: dose 15 mg/kg, time 0 - last, route oral; conditions: in vivo
[24] = MRTlast in CD1 mouse liver assessed as (12aR)-12-(Diphenylmethyl)-7-hydroxy-3,4,12,12a-tetrahydro-1H-[1,4]oxazino[3,4-c]pyrido[2,1-f ][1,2,4]triazine-6,8-dione level at 15 mg/kg, po administered as single dose measured up to 24 hrs by LC-MS/MS analysis; type: ADME, organism-based; conditions: in vivo
[25] = Oral bioavailability in CD1 mouse assessed as (12aR)-12-(Diphenylmethyl)-7-hydroxy-3,4,12,12a-tetrahydro-1H-[1,4]oxazino[3,4-c]pyrido[2,1-f ][1,2,4]triazine-6,8-dione level at 15 mg/kg administered as single dose by LC-MS/MS analysis; type: ADME, organism-based; conditions: in vivo
[26] = Acute toxicity in CD1 mouse assessed as effect on lung at 2000 mg/kg, po measured after 2 weeks by macroscopic analysis; type: organism-based; conditions: in vivo, 336 h
[27] = AUClast in CD1 mouse small intestine assessed as (12aR)-12-(Diphenylmethyl)-7-hydroxy-3,4,12,12a-tetrahydro-1H-[1,4]oxazino[3,4-c]pyrido[2,1-f ][1,2,4]triazine-6,8-dione level at 15 mg/kg, po administered as single dose measured up to 24 hrs by LC-MS/MS analysis; type: ADME, organism-based; conditions: in vivo

COC(=O)OCOc1c2n(ccc1=O)N([C@@H]1c3ccccc3SCc3c1ccc(F)c3F)[C@@H]1COCCN1C2=O [BALOXAVIR MARBOXIL]
MRTlast [1]: 5.54 h
Cmax [2]: 916 ng/g
t1/2 [3]: 3.29 h
Ratio AUC [4]: 46.8
AUClast [5]: 452 ng·h/mL
Kel [6]: 0.22 h⁻¹
AUClast [7]: 85226 ng·h/g
F [8]: 26.9%
Ratio AUC [9]: 234
Ratio AUC [10]: 10.4
Tmax [11]: 2 h
Kel [12]: 0.06 h⁻¹
Kel [13]: 0.27 h⁻¹
MRTlast [14]: 2.57 h
Ratio AUC [15]: 7.99

COC(=O)OCOc1c2n(ccc1=O)N(C(c1ccccc1)c1ccccc1)[C@@H]1COCCN1C2=O
MRTlast [16]: 1.67 h
AUClast [17]: 18065 ng·h/g
Ratio AUC [18]: 3
Cmax [19]: 12775 ng/g
Tmax [20]: 0.5 h
AUClast [21]: 8320 ng·h/g
Cmax [22]: 3431 ng/g
AUClast [23]: 3935 ng·h/mL
MRTlast [24]: 2.31 h
F [25]: 62.1%
Activity [26]: Non-Toxic
AUClast [27]: 43656 ng·h/g
